| Structure (SMILES) | melting point [°C] |
| --- | --- |
| O=C(Nc1cnccn1)c1ccc(I)cc1 | 196 to 198 |
| NS(=O)(=O)Cc1cccnc1 | 154 to 156 |
| Cc1ccc(S(=O)(=O)C(C#N)c2nc3ccccc3nc2Cl)cc1 (stereo unspecified) | 105 to 107 |
| Sc1nnc(-c2cccs2)[nH]1 | 239 to 241 |
| C#CCNc1nccs1 | 65 to 67 |
| COc1cc(C(=O)NN)ccc1OCCC(C)C | 88 to 90 |
| Cn1c(CC(=O)NN)nc2ccccc21 | 206 to 208 |
| O=C(O)c1cc(-c2ccccc2)n(-c2ccccn2)n1 | 194 to 196 |
| O=C1C=C(Br)C(=O)N1c1ccccc1 | 159 to 161 |
| O=C(O)c1cc(S(=O)(=O)Nc2ccccc2F)c[nH]1 | 207 to 209 |
| CC(C)CNC(=O)N1CCCC(C(=O)O)C1 (stereo unspecified) | 106 to 108 |
| O=C(Cc1ccc(Cl)cc1)c1ccccc1 | 131 to 135 |
| Cc1ccc(C(=O)C(=O)O)cc1 | 176 to 178 |
| CC(C)(C)C(=O)Cn1cc(C(=O)O)nn1 | 198 to 200 |
| Cc1[nH]c(-c2ccccn2)nc(=NN)c1C | 182 to 184 |
| O=C(CCl)Nc1ccc(Cl)cn1 | 142 to 144 |
| O=C(NO)c1ccc(Cl)cc1 | 170 to 172 |
| c1cc(-c2ccsc2)n[nH]1 | 110 to 112 |
| N#Cc1cccc(C2(N)CC2)c1 | 67 to 69 |
| Nc1cc(Cl)ccc1C(=O)N1CCCCC1CCO (stereo unspecified) | 115 to 117 |
| O=C(O)Cc1ccc(S(=O)(=O)CC(F)(F)F)cc1 | 142 to 144 |
| CC(C)(C)Oc1cccc(CCC(=O)O)n1 | 82 to 84 |
| Cn1cc(S(=O)(=O)NN)c(=O)n(C)c1=O | 134 to 136 |
| NS(=O)(=O)c1cccnc1Cl | 183 to 185 |
| NS(=O)(=O)CCS(=O)(=O)c1ccc(F)cc1 | 173 to 175 |

| Structure (SMILES) | melting point [°C] |
| --- | --- |
| CC(C)(C)S(=O)Cc1cccc(N)c1 (stereo unspecified) | 121 to 123 |
| Cc1cc(N2CCCS2(=O)=O)ccc1Br | 131 to 133 |
| Nc1cc(S(=O)(=O)N2CCOCC2)ccc1Cl | 177 to 179 |
| Cc1ccc(-n2c(N)nc3cc(Br)ccc32)cc1 | 194 to 196 |
| CCOc1ccccc1C(=O)CBr | 74 to 76 |
| COC(=O)c1ccc(C(F)(F)F)cc1N | 58 to 60 |
| Nc1nc(C2CC2)ns1 | 144 to 146 |
| O=C(O)c1cc(F)ccc1-n1ccnc1 | 229 to 231 |
| COc1ccc(Br)c(C#N)c1 | 101 to 103 |
| CC(C)(C)OC(=O)NCC#N | 53 to 57 |
| O=C(O)c1cccc(NS(=O)(=O)c2ccc(Cl)c(Cl)c2)c1 | 254 to 256 |
| CC(=O)Nc1sc2c(c1C(=O)O)CCCC2 | 210 to 212 |
| Cc1nc(N)c(I)cc1Br | 135 to 137 |
| O=C(O)c1cc(-c2ccco2)nn1-c1ccccc1 | 159 to 161 |
| N#CC(=O)c1ccc(Cl)cc1 | 41 to 43 |
| Nc1ncnc2ccccc12 | 264 to 266 |
| O=C(O)c1ccn(Cc2ccccc2)c1 | 150 to 152 |
| COc1ncnc(Cl)c1N | 70 to 72 |
| Cc1nc(-c2ccc(F)cc2)cs1 | 74 to 76 |
| Cc1sc2ncnc(Sc3ccccc3C(=O)O)c2c1C | 200 to 202 |
| Nc1ccc(S)c(Cl)c1 | 78 to 80 |
| Cc1ccc(S(=O)(=O)N2Cc3ccccc3CC2C(=O)O)cc1 (stereo unspecified) | 143 to 145 |
| O=C(Cc1nc2ccccc2n1C(F)F)c1cccs1 | 123 to 125 |
| CCOC(=O)c1cnc2c(OC)cc(Cl)c(OC)c2c1Cl | 152 to 154 |
| COc1ccc(OCCCC(=O)O)cc1 | 101 to 105 |

| Structure (SMILES) | melting point [°C] |
| --- | --- |
| CC(C)(C)OC(=O)N1CCc2n[nH]c(=O)cc2C1 | 187 to 189 |
| CC(=O)NCc1ccc(N)cc1 | 92 to 94 |
| COc1ccc(C(C)=O)c2ccccc12 | 64 to 66 |
| Cc1ncsc1C(=O)NC1CCNCC1 | 136 to 138 |
| Cc1ccsc1C(=O)Nc1ccc(O)cc1 | 127 to 129 |
| Clc1nc(CN2CCOCC2)nc2scc(-c3cccs3)c12 | 105 to 107 |
| CN(C)C(=O)c1c[nH]c2ccccc12 | 234 to 236 |
| CC(Cl)C(=O)NCC(=O)Nc1ccc(F)c(F)c1F (stereo unspecified) | 128 to 130 |
| O=Cc1cnn(-c2cccc(Cl)c2)n1 | 84 to 86 |
| O=C(O)c1cc2cccc(Cl)c2o1 | 243 to 245 |
| CN(C)C=C1C(=O)CCCC1=O | 111 to 113 |
| O=C(O)Cn1c(-c2cscn2)nc2ccccc21 | 256 to 258 |
| NC(=NO)c1cccc(OCc2cccnc2)c1 | 127 to 129 |
| CCOC(=O)c1sc2ccsc2c1CBr | 98 to 100 |
| Cc1ccc2oc(C(=O)O)cc2c1 | 243 to 245 |
| O=c1cc(CCl)occ1O | 166 to 168 |
| N#CCc1c[nH]c2cc(Cl)ccc12 | 99 to 101 |
| O=Cc1ccc(-c2ccccc2)s1 | 90 to 92 |
| COc1ccc(-c2nn(-c3ccccc3)cc2CC(=O)O)cc1 | 161 to 163 |
| COc1ccc(CNC(=O)OC(C)(C)C)c(OC)c1 | 59 to 61 |
| O=C(O)c1cnn2c1NCCC2 | 141 to 143 |
| Cc1ccc(C(=O)c2ccccc2C(=O)O)cc1C | 166 to 168 |
| CC(C)(C)OC(=O)NC1CCN(CC(=O)O)CC1 | 204 to 206 |
| CC(Nc1ncc(C(=O)O)cc1Cl)c1cccnc1 (stereo unspecified) | 184 to 186 |

More lines, now with the values ahead:

| melting point [°C] | Structure (SMILES) |
| --- | --- |
| 153 to 155 | Cc1cn2c(C=O)c(C)nc2s1 |
| 74 to 76 | COc1cc(C=O)ccc1OCc1ccc(Br)cc1 |
| 241 to 243 | O=[N+]([O-])c1ccc2oc(S)nc2c1 |
| 223 to 225 | CC(C(=O)O)N1C(=O)NC2(CCCC2)C1=O (stereo unspecified) |
| 269 to 271 | O=C(O)c1c[nH]nc1C1CCCCC1 |
| 134 to 136 | CN(C)S(=O)(=O)c1ccc(S(=O)(=O)Cl)cc1 |
| 282 to 284 | O=C(O)c1ccc(CN2C(=O)CNC2=O)cc1 |
| 218 to 220 | O=C(Nc1ccc(O)cc1)c1ccco1 |
| 122 to 124 | O=C(O)c1ccn(-c2ccccc2F)n1 |
| 188 to 190 | O=C(O)c1cc2occc2s1 |
| 120 to 122 | CC(Cl)C(=O)Nc1cc([N+](=O)[O-])ccc1Cl (stereo unspecified) |
| 51 to 53 | OCc1nnc(Cl)s1 |
| 102 to 104 | O=C(O)COc1ccccc1-c1ccccc1 |
| 133 to 135 | CC(=O)c1sc(-c2ccc(O)cc2)nc1C |
| 143 to 145 | CC(=O)c1cccc(S(N)(=O)=O)c1 |
| 75 to 79 | COc1ccc(S(=O)(=O)Cl)c([N+](=O)[O-])c1 |
| 225 to 229 | Cc1ccn2cc(C(=O)O)nc2c1 |
| 159 to 161 | O=C1C=CC(=O)N1c1ccc(F)c(Cl)c1 |
| 208 to 210 | CCCCNc1ccc(S(=O)(=O)N2CCCC2)cc1N |
| 42 to 44 | Cc1ccc(N2CCCC2)c(C#N)c1 |
| 51 to 53 | N#Cc1cncs1 |
| 58 to 60 | O=Cc1cccc(OCCCC(=O)O)c1 |
| 106 to 108 | NC(=O)N1CCOCC1 |
| 94 to 96 | Nc1cccc(Br)c1CO |

| melting point [°C] | Structure (SMILES) |
| --- | --- |
| 159 to 161 | Nc1cc(-n2cnnn2)ccc1Cl |
| 96 to 98 | O=S(=O)(Cl)CCNS(=O)(=O)c1ccccc1 |
| 195 to 197 | CCOC(=O)c1cc(C#N)c(SCC(=O)O)[nH]c1=O |
| 211 to 213 | O=C(O)c1ccc(CCC(F)(F)F)cc1 |
| 123 to 125 | CCc1nn(C)c2[nH]nc(N)c12 |
| 139 to 141 | COc1cccc(C(=O)c2c[nH]c3ncccc23)c1 |
| 159 to 161 | Fc1cc2nc[nH]c2cc1F |
| 44 to 46 | CN(C)C(=O)Sc1cccc(CCl)c1 |
| 122 to 124 | Clc1nc(-c2ccsc2)nc2ccccc12 |
| 50 to 52 | O=C(O)CCc1ccc(Cl)s1 |
| 125 to 135 | O=C(O)C=Cc1ccc(Br)o1 |
| 239 to 241 | O=C(O)c1cc(Br)c2occc2c1 |
| 149 to 151 | Cc1c(C(F)(F)F)cccc1S(N)(=O)=O |
| 138 to 140 | Nc1ccc(Br)cc1O |
| 289 to 291 | Oc1ccc(/C=C/c2ccc3ccccc3n2)cc1 |
| 135 to 139 | CC(=O)c1ccc(OCCCC(=O)O)cc1 |
| 199 to 201 | NCc1nc2ccccc2s1 |
| 245 to 247 | Cc1nc(-c2ccc(S(N)(=O)=O)cc2)co1 |
| 217 to 219 | CC(C)(C)NS(=O)(=O)c1cc(C(=O)O)ccc1Br |
| 148 to 150 | Cc1ccnc(N)c1C#N |
| 69 to 71 | Cc1cc2cc(Br)ccc2s1 |
| 188 to 190 | Cc1ccc(NC(=O)CC#N)cc1 |
| 105 to 107 | CC(C)C(Oc1ccc(Br)cc1)C(=O)O (stereo unspecified) |
| 149 to 151 | O=C(O)c1csc(Cc2ccc(F)cc2)n1 |

| melting point [°C] | Structure (SMILES) |
| --- | --- |
| 71 to 74 | O=C(CCl)Nc1ccc(OC(F)(F)F)cc1 |
| 164 to 166 | CC(C)(C)c1nc(C#N)c(NN)o1 |
| 115 to 117 | Nc1cccc(C(=O)N2CCCC(CO)C2)c1 (stereo unspecified) |
| 179 to 181 | NC(=O)c1ccc(Cl)cc1N |
| 207 to 209 | CN(C)c1ccc(C(N)=O)cc1 |
| 67 to 69 | Nc1cc(CC2CCCC2)no1 |
| 128 to 130 | O=C(NCCO)c1cncc(Br)c1 |
| 170 to 172 | CCOc1ccc(Nc2nnc(S)s2)cc1 |
| 90 to 94 | Cc1cc(C(=O)CCl)c(C)n1-c1cccc(F)c1 |
| 111 to 113 | CC1CN=C(Nc2cccc(S(=O)(=O)N(C)C)c2)S1 (stereo unspecified) |
| 52 to 54 | COC(=O)c1cc(F)cc(I)c1N |
| 283 to 285 | CC(NCc1ccc(F)cc1)C(=O)O (stereo unspecified) |
| 105 to 107 | Cc1ccc(C(=O)CC#N)s1 |
| 131 to 133 | CC(C)c1cc(O)ncn1 |
| 300 to 302 | COC(=O)c1ccc(-c2ccc(C(=O)O)cc2)cc1 |
| 71 to 73 | Cn1ccc2c1C(=O)NCC2 |
| 111 to 113 | OCCSc1ccnc2cc(Cl)ccc12 |
| 171 to 173 | CCOC(=O)c1sc(O)nc1C |
| 111 to 113 | CC1(C)Cc2cccc(OCC(=O)O)c2O1 |
| 128 to 130 | N#Cc1cc2c(nc1Cl)CCCC2 |
| 37 to 39 | Cc1cc([N+](=O)[O-])sc1Br |
| 113 to 115 | CC(Cl)C(=O)Nc1ncc(Cl)cc1Cl (stereo unspecified) |
| 149 to 151 | O=C(O)COc1ccc([N+](=O)[O-])c(F)c1 |
| 38 to 40 | O=C1CCCc2sccc21 |

Reference: a melting point compilation (Tetko et al.)
